Data set [1] relates to interleukin 5 (IL-5) production. Nature of the data set: Cytokine production inhibitory effect: IL-5 production by murine spleen cells treated with anti-mouse CD3 antibody and IL-2 (ELISA). It is filed as cell-based, Balb/c mice. The note with it: test compound 100 ppm, anti-CD3 antibody + IL-2, 40 to 48 hours, read-out: IL-5 production inhibitory ratio (%). For orientation: An ELISA detects its analyte on a solid surface through an enzyme-linked reagent.

Data set [2] has as its system interferon γ (IFN-γ) production. The data set is described as follows: Cytokine production inhibitory effect: IFN-γ production by murine spleen cells treated with anti-mouse CD3 antibody and IL-2 (ELISA). It is filed as cell-based, Balb/c mice. The conditions noted are these: test compound 100 ppm, anti-CD3 antibody + IL-2, 40 to 48 hours, read-out: IFN-γ production inhibitory ratio (%).

The term melting point denotes the temperature, or range, at which the solid turns liquid.

In turn, `O=C(Nc1ccc(S(=O)(=O)Nc2ccccn2)cc1)c1cc([N+](=O)[O-])ccc1Cl` [compound 136] showed a melting point of 178 to 181 °C. Besides, in data set [1], the inhibition at 100 ppm was 98%. Besides, the inhibition at 100 ppm in data set [2] was 100%.
With `O=C(Nc1ccc(S(=O)(=O)Nc2ncccn2)cc1)c1cc([N+](=O)[O-])ccc1Cl` [compound 137], the melting point was 252 to 258 °C. Further, the inhibition at 100 ppm in data set [1] came to 98%. In data set [2], the inhibition at 100 ppm is 98%.
As for `O=C(Nc1ccc(S(=O)(=O)NC2=NC3C=CC=CC3N=C2)cc1)c1cc([N+](=O)[O-])ccc1Cl` (stereo not drawn) [compound 138], the melting point is 146 to 150 °C. Moreover, the inhibition at 100 ppm in data set [1] was found to be 99%. Also, the inhibition at 100 ppm in data set [2] stood at 100%.
The like results for `O=C(Nc1ccc2c(c1)CCC2)c1cc([N+](=O)[O-])ccc1Cl` [compound 139] were, in that order, 225 to 229 °C, 89% and 50%.
The matching figures for `O=C(Nc1ccc2ncsc2c1)c1cc([N+](=O)[O-])ccc1Cl` [compound 140]: 242 to 244 °C, 100% and 100%.
The like results for `O=C(Nc1nc(-c2ccc(Cl)cc2)cs1)c1cc([N+](=O)[O-])ccc1Cl` [compound 141] were, in that order, 217 to 221 °C, 100% and 100%.
As for `O=C(Nc1ccc(S(=O)(=O)Nc2nccs2)cc1)c1cc([N+](=O)[O-])ccc1Cl` [compound 142], the melting point fell in the range of 140 to 147 °C. For the same compound, the inhibition at 100 ppm in data set [1] was found to be 95%. Further, the inhibition at 100 ppm in data set [2] turned out to be 99%.
The like results for `O=C(Nc1nc2ccccc2s1)c1cc([N+](=O)[O-])ccc1Cl` [compound 143] were, in that order, 221 to 227 °C, 97% and 100%.
The matching figures for `O=C(Nc1ccc(=O)n(-c2ncc(C(F)(F)F)cc2Cl)c1)c1cc([N+](=O)[O-])ccc1Cl` [compound 144]: 116 °C, 99% and 100%.
The like results for `Cc1ccc(S(=O)(=O)Nc2ccc(NC(=O)c3cc([N+](=O)[O-])ccc3Cl)cc2)cc1` [compound 145] were, in that order, 165 to 172 °C, 100% and 100%.
`O=C(NS(=O)(=O)c1ccc(NC(=O)c2cc([N+](=O)[O-])ccc2Cl)cc1)c1ccccc1` [compound 146] had a melting point of 235 to 237 °C. Further, the inhibition at 100 ppm in data set [1] came to 62%. For the same compound, in data set [2], the inhibition at 100 ppm was determined as 43%.
The like results for `Cc1cc(NC(=O)c2cc([N+](=O)[O-])ccc2Cl)ccc1Nc1ncc(C(F)(F)F)cc1Cl` [compound 148] were, in that order, 189 to 192 °C, 94% and 81%.
